Laboratory results as given in US7998965B2, “Glutamate aggrecanase inhibitors” (Wyeth LLC, priority 2005, dated 2011).

How the values were obtained:
[1] = target: T1, purified recombinant human Aggrecanase-2 (Ag2t-Phe628-Strep) (Homo sapiens, UniProt Q9UNA0); experiment: In vitro fluorescence screen for Aggrecanase-2 inhibitors; type: biochemical; details: Table 2; read-out: Agg 2 IC50
T1 construct: the form used is denoted as Ag2t-Phe628-Strep (MW=41,737)
T1 sequence (Q9UNA0 262-628): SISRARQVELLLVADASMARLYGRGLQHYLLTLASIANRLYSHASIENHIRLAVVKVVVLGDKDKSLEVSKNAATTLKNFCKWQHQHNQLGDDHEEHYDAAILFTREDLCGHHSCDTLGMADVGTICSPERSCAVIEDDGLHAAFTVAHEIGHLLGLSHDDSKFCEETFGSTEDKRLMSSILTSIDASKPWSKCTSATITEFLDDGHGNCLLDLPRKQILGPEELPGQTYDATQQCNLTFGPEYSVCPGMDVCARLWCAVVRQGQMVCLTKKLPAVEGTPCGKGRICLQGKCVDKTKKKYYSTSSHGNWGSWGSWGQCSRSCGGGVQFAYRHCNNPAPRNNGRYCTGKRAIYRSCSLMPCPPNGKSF

[2] = target: T2, purified recombinant human Aggrecanase-1 (rAgg1) (Homo sapiens, UniProt O75173); experiment: In vitro fluorescence screen for Aggrecanase-1 inhibitors; type: biochemical; details: Table 2; read-out: Agg1 IC50
T2 sequence (O75173 213-837): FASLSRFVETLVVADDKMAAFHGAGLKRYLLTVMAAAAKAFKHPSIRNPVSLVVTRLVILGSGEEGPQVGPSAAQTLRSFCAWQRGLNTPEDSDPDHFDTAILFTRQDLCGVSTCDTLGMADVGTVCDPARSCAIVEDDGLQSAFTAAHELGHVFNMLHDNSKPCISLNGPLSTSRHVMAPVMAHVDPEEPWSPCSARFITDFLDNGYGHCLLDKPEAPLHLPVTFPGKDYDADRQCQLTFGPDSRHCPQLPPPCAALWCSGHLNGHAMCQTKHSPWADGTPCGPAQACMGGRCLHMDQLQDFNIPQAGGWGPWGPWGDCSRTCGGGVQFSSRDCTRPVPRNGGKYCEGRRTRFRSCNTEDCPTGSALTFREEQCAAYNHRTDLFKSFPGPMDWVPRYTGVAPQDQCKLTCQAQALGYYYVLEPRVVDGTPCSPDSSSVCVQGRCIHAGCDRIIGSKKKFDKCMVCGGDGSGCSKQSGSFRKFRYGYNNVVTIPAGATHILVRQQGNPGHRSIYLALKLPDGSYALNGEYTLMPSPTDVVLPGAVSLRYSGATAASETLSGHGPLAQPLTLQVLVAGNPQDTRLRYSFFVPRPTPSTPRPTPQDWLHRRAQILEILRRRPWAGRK

IC50 [1]	IC50 [2]	Structure (SMILES)
1.02 µM	0.93 µM	COc1cccc(COc2ccc(-c3ccc(C(=O)N[C@@H](CCC(=O)O)C(=O)NCC45CC6CC(CC(C6)C4)C5)cc3)cc2)c1 [Example 19A, N-(1-adamantylmethyl)-N^2-({4′-[(3-methoxybenzyl)oxy]biphenyl-4-yl}carbonyl)-L-α-glutamine]
0.59 µM	3.2 µM	COc1cc(COc2ccc(-c3ccc(C(=O)N[C@@H](CCC(=O)O)C(=O)NCC45CC6CC(CC(C6)C4)C5)cc3)cc2)cc(OC)c1 [Example 19B, N-(1-adamantylmethyl)-N^2-(4′-{[(3,5-dimethoxybenzyl)oxy]biphenyl-4-yl}carbonyl)-L-α-glutamine]
0.075 µM	0.14 µM	COc1cc(COc2ccc(-c3ccc(C(=O)N[C@@H](CCC(=O)O)C(=O)NC(C)(C)Cc4ccccc4)cc3)cc2)cc(OC)c1 [Example 19C, N^2-({4′-[(3,5-dimethoxybenzyl)oxy]biphenyl-4-yl}carbonyl)-N-(1,1-dimethyl-2-phenylethyl)-L-α-glutamine]
0.223 µM	0.21 µM	COc1cc(CNC(=O)[C@H](CCC(=O)O)NC(=O)c2ccc(-c3ccc(OCc4cc(C)cc(C)c4)cc3)cc2)cc(OC)c1OC [Example 19D, N^2-({4′-[(3,5-dimethylbenzyl)oxy]biphenyl-4-yl}carbonyl)-N-(3,4,5-trimethoxybenzyl)-L-α-glutamine]
1.12 µM	0.049 µM	COc1cc(CNC(=O)[C@H](CCC(=O)O)NC(=O)c2ccc(-c3ccc(OCc4cc(C(F)(F)F)cc(C(F)(F)F)c4)cc3)cc2)cc(OC)c1OC [Example 19E, N^2-[(4′-{[3,5-bis(trifluoromethyl)benzyl]oxy}biphenyl-4-yl)carbonyl]-N-(3,4,5-trimethoxybenzyl)-L-α-glutamine]
0.163 µM	0.068 µM	COc1cccc(COc2ccc(-c3ccc(C(=O)N[C@@H](CCC(=O)O)C(=O)NC(C)(C)Cc4ccccc4)cc3)cc2)c1 [Example 19F, N-(1,1-dimethyl-2-phenylethyl)-N^2-({4′-[(3-methoxybenzyl)oxy]biphenyl-4-yl}carbonyl)-L-α-glutamine]
0.146 µM	0.27 µM	COc1cc(COc2ccc(-c3ccc(C(=O)N[C@@H](CCC(=O)O)C(=O)NCCCCCCO)cc3)cc2)cc(OC)c1 [Example 19G, N^2-({4′-[(3,5-dimethoxybenzyl)oxy]biphenyl-4-yl}carbonyl)-N-(6-hydroxyhexyl)-L-α-glutamine]

Second part, the molecule before the results:

Structure (SMILES)	IC50 [1]	IC50 [2]
O=C(O)CC[C@H](NC(=O)c1ccc(-c2ccc(O)cc2)cc1)C(=O)NCC12CC3CC(CC(C3)C1)C2 [Example 17O, N-(1-adamantylmethyl)-N^2-[(4′-hydroxybiphenyl-4-yl)carbonyl]-L-α-glutamine]	~22 µM	8.5 µM
CC(C)(Cc1ccc(F)cc1)NC(=O)[C@H](CCC(=O)O)NC(=O)c1ccc(-c2ccc(O)cc2)cc1 [Example 17OO, N-[2-(4-fluorophenyl)-1,1-dimethylethyl]-N^2-[(4′-hydroxybiphenyl-4-yl)carbonyl]-L-α-glutamine]	1.68 µM	< 0.03 µM
CC(C)(Cc1ccccc1)NC(=O)[C@H](CCC(=O)O)NC(=O)c1ccc(-c2ccc3c(c2)OCO3)cc1 [Example 17P, N^2-[4-(1,3-benzodioxol-5-yl)benzoyl]-N-(1,1-dimethyl-2-phenylethyl)-L-α-glutamine]	0.058 µM	0.126 µM
COc1ccc(-c2ccc(C(=O)N[C@@H](CCC(=O)O)C(=O)NC(C)(C)Cc3ccccc3)cc2)c(OC)c1 [Example 17Q, N^2-[(2′,4′-dimethoxybiphenyl-4-yl)carbonyl]-N-(1,1-dimethyl-2-phenylethyl)-L-α-glutamine]	> 30 µM	~13 µM
O=C(O)CC[C@H](NC(=O)c1ccc(C#CC2CCC(O)CC2)cc1)C(=O)NCc1ccccc1 (stereo partly drawn) [Example 17QQ, N-benzyl-N^2-{4-[(4-hydroxycyclohexyl)ethynyl]benzoyl}-L-α-glutamine]	~22 µM	> 25 µM
COc1cc(CNC(=O)[C@H](CCC(=O)O)NC(=O)c2ccc(-c3cccc(O)c3)cc2)cc(OC)c1OC [Example 17RR, N^2-[(3′-hydroxybiphenyl-4-yl)carbonyl]-N-(3,4,5-trimethoxybenzyl)-L-α-glutamine]	0.026 µM	< 0.03 µM
CCC(C)c1ccc(-c2ccc(C(=O)N[C@@H](CCC(=O)O)C(=O)NC(C)(C)Cc3ccccc3)cc2)cc1 (stereo partly drawn) [Example 17S, N^2-[(4′-sec-butylbiphenyl-4-yl)carbonyl]-N-(1,1-dimethyl-2-phenylethyl)-L-α-glutamine]	10.1 µM	4.6 µM
CC(C)(Cc1ccccc1)NC(=O)[C@H](CCC(=O)O)NC(=O)c1ccc(-c2ccc(CO)cc2)cc1 [Example 17SS, N-(1,1-dimethyl-2-phenylethyl)-N^2-{[4′-(hydroxymethyl)biphenyl-4-yl]carbonyl}-L-α-glutamine]	3.96 µM	0.45 µM
CC(C)c1ccc(-c2ccc(C(=O)N[C@@H](CCC(=O)O)C(=O)NC(C)(C)Cc3ccccc3)cc2)cc1 [Example 17T, N-(1,1-dimethyl-2-phenylethyl)-N^2-[(4′-isopropylbiphenyl-4-yl)carbonyl]-L-α-glutamine]	7.2 µM	3.2 µM
Cc1ccc(-c2ccc(C(=O)N[C@@H](CCC(=O)O)C(=O)NC(C)(C)Cc3ccccc3)cc2)cc1 [Example 17TT, N-(1,1-dimethyl-2-phenylethyl)-N^2-[(4′-methylbiphenyl-4-yl)carbonyl]-L-α-glutamine]	0.173 µM	0.12 µM
CC(C)(Cc1ccccc1)NC(=O)[C@H](CCC(=O)O)NC(=O)c1ccc(-c2ccc(-c3ccccc3)cc2)cc1 [Example 17U, N-(1,1-dimethyl-2-phenylethyl)-N^2-(1,1′:4′,1″-terphenyl-4-ylcarbonyl)-L-α-glutamine]	~6.7 µM	1.8 µM
CC(C)(Cc1ccc(F)cc1)NC(=O)[C@H](CCC(=O)O)NC(=O)c1ccc(-c2cccc(O)c2)cc1 [Example 17UU, N-[2-(4-fluorophenyl)-1,1-dimethylethyl]-N^2-[(3′-hydroxybiphenyl-4-yl)carbonyl]-L-α-glutamine]	0.039 µM	< 0.03 µM
COc1cc(CNC(=O)[C@H](CCC(=O)O)NC(=O)c2ccc(-c3ccc(O)cc3)cc2)cc(OC)c1OC [Example 17V, N^2-[(4′-hydroxybiphenyl-4-yl)carbonyl]-N-(3,4,5-trimethoxybenzyl)-L-α-glutamine]	1.8 µM	0.09 µM
CN(C)C(=O)c1cccc(-c2ccc(C(=O)N[C@@H](CCC(=O)O)C(=O)NCC34CC5CC(CC(C5)C3)C4)cc2)c1 [Example 17W, N-(1-adamantylmethyl)-N^2-({3′-[(dimethylamino)carbonyl]biphenyl-4-yl}carbonyl)-L-α-glutamine]	~67 µM	> 25 µM
Cc1cc(C)cc(-c2ccc(C(=O)N[C@@H](CCC(=O)O)C(=O)NCC34CC5CC(CC(C5)C3)C4)cc2)c1 [Example 17X, N-(1-adamantylmethyl)-N^2-[(3′,5′-dimethylbiphenyl-4-yl)carbonyl]-L-α-glutamine]	~22 µM	2 µM
Cc1cccc(-c2ccc(C(=O)N[C@@H](CCC(=O)O)C(=O)NC(C)(C)Cc3ccc(F)cc3)cc2)c1 [Example 17Y, N-[2-(4-fluorophenyl)-1,1-dimethylethyl]-N^2-[(3′-methylbiphenyl-4-yl)carbonyl]-L-α-glutamine]	0.156 µM	< 0.03 µM
COc1cc(CNC(=O)[C@H](CCC(=O)O)NC(=O)c2ccc(-c3cccc(C(C)C)c3)cc2)cc(OC)c1OC [Example 17Z, N^2-[(3′-isopropylbiphenyl-4-yl)carbonyl]-N-(3,4,5-trimethoxybenzyl)-L-α-glutamine]	3.14 µM	0.17 µM
COc1cc(CNC(=O)[C@H](CCC(=O)O)NC(=O)c2ccc(Br)cc2)cc(OC)c1OC [Example 18D, N^2-(4-bromobenzoyl)-N-(3,4,5-trimethoxybenzyl)-L-α-glutamine]	> 22 µM	4.4 µM
CC(C)(Cc1ccccc1)NC(=O)[C@H](CCC(=O)O)NC(=O)c1ccc(Br)cc1 [Example 18E, N^2-(4-bromobenzoyl)-N-(1,1-dimethyl-2-phenylethyl)-L-α-glutamine]	> 11 µM	2.2 µM
O=C(O)CC[C@H](NC(=O)c1ccc(Br)cc1)C(=O)NCC12CC3CC(CC(C3)C1)C2 [Example 18F, N-(1-adamantylmethyl)-N^2-(4-bromobenzoyl)-L-α-glutamine]	> 67 µM	> 67 µM
